Legend:
[1] = target: T1, PDK1_1-556 (Homo sapiens, UniProt O15530); test: Differential scanning fluorimetry, thermal stability of PDK1_1-556; format: binding
T1 construct: effect of HYG8 on the thermal stability (ΔTm) of PDK1_1-556 (H) and PDK1_50-359 (I); His (N); made in house; host or cells: Sf9 insect cells (baculovirus)
T1 sequence (O15530 1-556): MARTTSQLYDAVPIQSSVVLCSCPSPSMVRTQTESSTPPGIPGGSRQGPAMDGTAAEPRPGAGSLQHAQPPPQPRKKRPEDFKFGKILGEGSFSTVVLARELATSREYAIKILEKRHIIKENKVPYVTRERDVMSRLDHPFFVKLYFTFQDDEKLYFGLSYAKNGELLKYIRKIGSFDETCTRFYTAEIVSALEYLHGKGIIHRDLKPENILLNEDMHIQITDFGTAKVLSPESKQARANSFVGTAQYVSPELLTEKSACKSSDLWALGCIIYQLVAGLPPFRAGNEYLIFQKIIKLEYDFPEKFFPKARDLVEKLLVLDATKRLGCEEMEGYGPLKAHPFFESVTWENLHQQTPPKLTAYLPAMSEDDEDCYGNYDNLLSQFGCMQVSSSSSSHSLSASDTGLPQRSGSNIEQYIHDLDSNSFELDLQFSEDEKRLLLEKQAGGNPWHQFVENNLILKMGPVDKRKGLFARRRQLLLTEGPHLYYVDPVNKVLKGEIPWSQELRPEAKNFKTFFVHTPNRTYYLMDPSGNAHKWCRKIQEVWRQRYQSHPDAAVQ
Method: (§1) The thermal stability of PDK1 was assessed by monitoring the unfolding of PDK1 by the increase in the fluorescence of SYPRO Orange (Invitrogen) using a real-time PCR device (StepOnePlus, Applied Biosystems and BioRad CFX96) following a previously described protocol ([70]). The reactions were performed in a final volume of 10 μl in white 96-well PCR microtiter plates (Greiner) and contained 1 μM PDK1, 10 mM HEPES (pH 7.5), 150 mM NaCl, 1/1000 SYPRO Orange and 1 mM dithiothreitol. For valsartan, the assay buffer was modified to exclude NaCl. PIFtide or compounds (at a final DMSO concentration of 1%) were added to this reaction mixture. The temperature gradient was performed in steps of 0.3 °C in the range from 25 to 70 °C. To calculate the Tm values, data were exported to GraphPad Prism and curves fitted to a Boltzmann sigmoidal equation with an acceptable confidence interval of 95%. Statistical analysis was performed with Infostat software (http://www.infostat.com.ar) and GraphPad Prism by first verifying a normal distribution of pooled residuals (Shapiro-Wilks test) and homogeneity of variance (F test), and then performing a one-way ANOVA followed by the post hoc comparisons test indicated in each figure legend.

[2] = target: T2, PDK1_50-359 (Homo sapiens, UniProt O15530); test: Differential scanning fluorimetry, thermal stability of PDK1_50-359 (catalytic domain); format: binding
T2 construct: His (N); made in house; host or cells: insect cells (stated for the crystallography batch)
T2 sequence (O15530 50-359): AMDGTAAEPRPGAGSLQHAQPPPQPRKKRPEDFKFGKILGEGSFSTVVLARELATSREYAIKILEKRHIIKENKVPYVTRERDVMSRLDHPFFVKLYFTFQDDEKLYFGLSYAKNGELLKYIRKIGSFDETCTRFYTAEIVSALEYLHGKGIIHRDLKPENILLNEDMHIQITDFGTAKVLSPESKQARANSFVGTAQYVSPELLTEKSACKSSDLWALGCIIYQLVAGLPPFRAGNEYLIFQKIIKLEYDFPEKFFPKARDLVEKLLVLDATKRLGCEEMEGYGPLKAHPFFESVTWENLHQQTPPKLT
Method: as §1

[3] = target: T3, PDK1 (Homo sapiens, UniProt O15530); test: PDK1 activity assay with T308tide and [γ32P]ATP; format: biochemical; details: isolated catalytic domain
T3 construct: made in house; host or cells: HEK293 (GST fusion) or Sf9 insect cells (His form)
T3 sequence (O15530 1-359): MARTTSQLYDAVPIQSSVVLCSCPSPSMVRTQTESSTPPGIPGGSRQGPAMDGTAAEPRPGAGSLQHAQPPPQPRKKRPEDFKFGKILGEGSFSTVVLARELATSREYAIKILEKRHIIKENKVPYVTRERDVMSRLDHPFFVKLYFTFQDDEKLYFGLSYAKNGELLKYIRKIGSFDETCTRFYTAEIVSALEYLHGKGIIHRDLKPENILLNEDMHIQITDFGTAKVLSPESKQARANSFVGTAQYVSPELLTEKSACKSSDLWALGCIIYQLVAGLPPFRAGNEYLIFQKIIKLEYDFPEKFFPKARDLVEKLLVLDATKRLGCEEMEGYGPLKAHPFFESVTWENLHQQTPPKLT
Method: The PDK1 activity assay using T308tide as a substrate was performed essentially as previously described ([18], [28], [54]). In brief, the assay was performed in a 20 μl format containing 50 mM Tris pH 7.5, 0.05 mg/ml BSA, 0.1% ß-mercaptoethanol, 10 mM MgCl2, 100 μM [γ^32P]ATP (5-50 cpm/pmol), 0.003% Brij, 150-500 ng PDK1, and T308tide (0.3 mM) at room temperature. The assay was performed in 96 well plated and stopped by the addition of 5 μl of 0.1 % phosphoric acid. 4 μl aliquots were spotted on p81 phosphocellulose papers (Whatmann) using ep motion 5070 (Eppendorf). The phosphocellulose papers were washed in 0.01% phosphoric acid, dried, and exposed using PhosphoImager (FLA-9000 Starion). Data were analyzed with ImageQuant software (Fujifilm). Activity measurements were performed in technical duplicates or triplicates with less than 10% difference between replicates. Experiments were repeated at least twice. The activity measurements of PDK1 towards GS-022 and GS-023 were performed similarly, with the GS-peptides replacing T308tide at the indicated concentrations. GS-022 and GS-023 have features consistent with the loose characteristics disclosed for the peptide Ser/Thr 07, ((R/K)1-3(X)0-2 (S/T) (X)0-2(R/K)1-3, where X is any residue) used by the commercial “PDK1 Direct” assay.

[4] = target: T4, His-PDK1_1-556 and GST-PDK1_360-556 (Homo sapiens, UniProt O15530); test: AlphaScreen PDK1 dimerization assay His-PDK1_1-556 / GST-PDK1_360-556; format: binding; details: Prestwick library screen hits; read-out: IC50, inhibition of PDK1 dimerization
T4 construct: made in house; host or cells: Sf9 insect cells (His-PDK1_1-556); HEK293 cells (GST-PDK1_360-556)
T4 sequence (O15530 1-556): T1 sequence (O15530 1-556)
Method: (§2) The AlphaScreen® assay was performed following the general guidelines from the manufacturer (Perkin Elmer) ([29]). In short, the assay was performed in a final volume of 25 μl in white 384-well microtiter plates (Greiner) in a standard buffer containing 50 mM Tris-HCl (pH 7.4), 100 mM NaCl, 2 mM DTT, 0.01% (v/v) Tween-20 and 0.1% (w/v) BSA, with the addition of 5 μl of beads (anti-GST coated acceptor beads and streptavidin-coated donor beads; nickel chelate-coated acceptor beads and streptavidin-coated donor beads; or nickel chelate-coated acceptor beads and GSH-coated donor beads, 20 μg/ml final concentrations for each bead type). AlphaScreen assays for His-tagged proteins and GST-fusion proteins were performed using nickel chelate-coated acceptor beads and GSH-coated donor beads; alphascreen assays for His-tagged proteins and biotinylated molecules were performed using nickel chelate-coated acceptor beads and streptavidin-coated donor beads; alphascreen assays for GST-fusion proteins and biotinylated molecules were performed using anti-GST coated acceptor beads and streptavidin-coated donor beads (Perkin Elmer).
The conditions for each AlphaScreen assay were identified in cross-titration experiments for each interaction to choose the ideal pair of concentrations within the linear range of the interactions. […] His-PDK1 and GST-fusion protein in the presence or absence of the different compounds were incubated in the dark for 60 min at room temperature and the emission of light from the acceptor beads was measured in an EnVision reader (Perkin Elmer) or Spark plate reader (Tecan). […]

[5] = target: T5, GST-PDK1_1-556 (Homo sapiens, UniProt O15530); test: AlphaScreen GST-PDK1_1-556 / biotin-PIFtide interaction; format: binding
T5 construct: made in house; host or cells: HEK293 cells (transient transfection of pEBG2T); peptide synthesized by Pepscan
T5 sequence (O15530 1-556): T1 sequence (O15530 1-556)
Method: as §2
The interaction between GST-PDK1_1-556 and biotin-PIFtide was performed as described previously ([29], [32]) in the standard buffer, but the bead concentration was lowered to 15 μg/ml.

ΔTm at 50 µM ([1]; 50 μM, buffer without NaCl): 2.2 °C
effect on temperature stability of the PDK1-HYG8 complex ([1]; in presence of HYG8): did not further enhance
effect on thermal stability of PDK1_50-359 (catalytic domain) [2]: less stabilization
effect on activity of the isolated catalytic domain of PDK1 toward T308tide [3]: modestly increased
IC50 [4]: 32 µM
effect on PDK1-PIFtide interaction [5]: inhibited
SMILES: CCCCC(=O)N(Cc1ccc(-c2ccccc2-c2nnn[nH]2)cc1)[C@H](C(=O)O)C(C)C [valsartan, reference compound]
